Measurements reported in publication PMC5400507, “The neuropeptide F/nitric oxide pathway is essential for shaping locomotor plasticity underlying locust phase transition” (eLife, 2017).

Experiments:
Format in all cases: in vivo, Locusta migratoria
NOS = experiment: Total NOS activity in locust brains (NOS Kit); details: n = 4 samples
Procedure: (§1) An enzyme-linked immunosorbent assay (ELISA) kit (R and D Systems, Inc.) was used to detect the relative cAMP level in locust brains. For NO content determination, Total Nitric Oxide Assay Kit (Beyotime) was used. Because NO molecules are unstable, the total NO levels in all test groups were assessed by detecting the content of nitrate and nitrite. The NOS Kit (Nanjing Jiancheng Bioengineering Institute) was used to detect the total NOS activity in locust brains. Protein concentrations were measured using the BicinChoninic Acid (BCA) Protein Assay Kit (Thermo). All of these three measurements were performed according to the manufacturer’s instructions. Each measurement was from at least four biological replicates (12–16 locusts/replicate). Data were normalized to the protein concentration.

locusts = experiment: Behavioral arena assay (Pgreg, TDM, TDMV, attraction index); details: for attraction index: 2 hr after drug injection (L-NAME in G-phase, SNAP in S-phase) or 48 hr after NOS knockdown in G-phase; for behavioral phase state (Pgreg) / total distance moved (TDM) / total duration of movement (TDMV): n ≥ 23
Procedure: The concentrations of peptides and drugs that were used were determined according to described methods ([[…] and Yates, 2007]; [Van […] et al., 2013b]). […] Working solutions of different concentrations (0.05, 0.5 and 2.5 μg/μl) were injected into the hemolymph in the heads of fourth-instar locusts using a microinjector (2 μl/locust). The arena behavioral assay was conducted 1 hr, 2 hr, and 4 hr following injection. […] Working solution (100 μM) was microinjected into the heads of G-phase locusts (2 μl/locust). SNAP was dissolved with DMSO to prepare 100 mM stock solution. Working solution (200 μM) was microinjected into the heads of S-phase locusts (2 μl/locust). Locust behaviors were tested 2 hr after drug injection. The behavioral assay was performed in a rectangular Perspex arena (40 cm × 30 cm × 10 cm) containing three chambers. The left chamber (7.5 cm × 30 cm × 10 cm) contained 30 fourth-instar G-phase locusts as a stimulus group, and the right chamber was empty (7.5 cm × 30 cm × 10 cm). Locusts behaviors were recorded for 300 s by an EthoVision video tracking system and analyzed according to the binary logistic regression model constructed in our previous work ([Guo et al., 2011]). Details are as follow: […] AI = total duration in stimulus area - total duration in the opposite of stimulus area; this parameter represents the extent to which the tested animals are attracted by the stimulus group. TDMV (total duration of movement) and TDM (total distance moved) indicate the locomotor activity levels. Pgreg indicates the probability that a locust is considered gregarious. […] In the behavioral assay, 16-35 locusts were tested for each treatment according to the sample size reported in previous studies ([Ott et al., 2012]; [Ma et al., 2011]). […] Two hours later, SNAP (200 μM, 2 μl/locust) was injected into the heads of the experimental insects. Control insects were treated with an equal amount of saline. The injected locusts were then raised under the gregarious condition and subjected to behavioral analysis 2 hr after injection of SNAP. For S-phase locusts, […] or […] was microinjected into the brains of fourth-instar S-phase insects. […] The insects treated with dsGFP were used as a control.

NO = NO level in locust brains (Total Nitric Oxide Assay Kit); details: n = 4 samples
Procedure: as §1

[1] = G-phase locust brains, 2 hr after L-NAME injection or 48 hr after NOS knockdown
[2] = G-phase locusts, 2 hr after injection of L-NAME (100 μM, 2 μl/locust) or 48 hr after NOS knockdown
[3] = S-phase locusts pre-injected with dsNPFR or dsNPYR, 2 hr after L-NAME injection, n ≥ 16
[4] = S-phase locust brains, 2 hr after SNAP injection
[5] = G-phase locusts pre-injected with NPF1a or NPF2 peptide, SNAP 200 μM, 2 μl/locust 2 hr later, tested 2 hr after SNAP, n ≥ 24
[6] = S-phase locusts, 2 hr after injection of SNAP (200 μM, 2 μl/locust)

| Molecule | NOS activity (NOS; [1]) | attraction index (locusts) | behavioral phase state (Pgreg) (locusts; [2]) | total distance moved (TDM) (locusts; [2]) | total duration of movement (TDMV) (locusts; [2]) | Pgreg increase induced by NPFR or NPYR knockdown (locusts; [3]) | total distance moved increase induced by NPFR or NPYR knockdown (locusts; [3]) | total duration of movement increase induced by NPFR or NPYR knockdown (locusts; [3]) | NO levels (NO; [1]) | NOS activity (NOS; [4]) | Pgreg, rescue (locusts; [5]) | total distance moved, rescue (locusts; [5]) | total duration of movement, rescue (locusts; [5]) | behavioral phase state (Pgreg) (locusts; [6]) | total distance moved (TDM) (locusts; [6]) | total duration of movement (TDMV) (locusts; [6]) | NO levels (NO; [4]) |
| --- | --- | --- | --- | --- | --- | --- | --- | --- | --- | --- | --- | --- | --- | --- | --- | --- | --- |
| COC(=O)[C@@H](N)CCCNC(N)=N[N+](=O)[O-] [L-NAME, N-Nitro-L-arginine Methyl Ester] | significantly reduced | did not change the attraction index | S-phase-like behavior | strongly suppressed | strongly suppressed | robustly abolished the increase | robustly abolished the increase | robustly abolished the increase | significantly reduced |  |  |  |  |  |  |  |  |
| S-nitroso-N-acetyl-penicillamine [SNAP] |  | did not change the attraction index |  |  |  |  |  |  |  | without affecting NOS activity | robust recovery | robust recovery | robust recovery | pushed locust behavioral change from S-phase to G-phase state | enhanced | enhanced | increased |
